Drawing on patent US8268840B2, “Pyrimidinyl pyridone inhibitors of kinases” (Roche Palo Alto LLC, priority 2008, dated 2012), this text covers melting point for 13 compounds.

Bounds are passed on as bounds.

The term melting point denotes the temperature of the solid-liquid transition.

Take `CS(=O)(=O)N1CCC(Nc2ncc3c(N)cc(=O)n(C4CCCCC4)c3n2)CC1` [Compound I-29, 5-Amino-8-cyclohexyl-2-(1-methanesulfonyl-piperidin-4-ylamino)-8H-pyrido[2,3-d]pyrimidin-7-one]: the melting point fell in the range of 250 to 254 °C. The same measure for `CC(=O)N1CCC(Nc2ncc3c(N)cc(=O)n(C4CCCC4)c3n2)CC1` [Compound I-30, 2-(1-Acetyl-piperidin-4-ylamino)-5-amino-8-cyclopentyl-8H-pyrido[2,3-d]pyrimidin-7-one]: 282 to 285 °C; for `Nc1c(-c2ccccc2)c(=O)n(C2CCC2)c2nc(NC3CCCCC3)ncc12` [Compound I-31, 5-Amino-8-cyclobutyl-2-cyclohexylamino-6-phenyl-8H-pyrido[2,3-d]pyrimidin-7-one]: 160 to 161 °C.

As to `Nc1cc(=O)n(C2CCCCC2)c2nc(NC3CCCCC3)ncc12` [Compound I-32, 5-Amino-8-cyclohexyl-2-cyclohexylamino-8H-pyrido[2,3-d]pyrimidin-7-one], the melting point was 243.1 to 244.9 °C. For `Nc1cc(=O)n(C2CCCC2)c2nc(NC3CCOCC3)ncc12` [Compound I-33, 5-Amino-8-cyclopentyl-2-(tetrahydro-pyran-4-ylamino)-8H-pyrido[2,3-d]pyrimidin-7-one], the melting point fell in the range of 120 to 124 °C. The same measure for `Cc1c(N)c2cnc(N[C@@H]3CCCC[C@H]3C)nc2n(C2CCC2)c1=O` [Compound I-34, 5-Amino-8-cyclobutyl-6-methyl-2-((1R,2R)-2-methyl-cyclohexylamino)-8H-pyrido[2,3-d]pyrimidin-7-one]: 209 to 210 °C. For `CCc1c(N)c2cnc(NC3CCCCC3)nc2n(C2CCCC2)c1=O` [Compound I-36, 5-Amino-2-cyclohexylamino-8-cyclopentyl-6-ethyl-8H-pyrido[2,3-d]pyrimidin-7-one], the melting point lay within 229.8 to 230.5 °C. The compound `N#Cc1c(N)c2cnc(N[C@H]3CC[C@H](C(=O)N4CCC(O)CC4)CC3)nc2n(C2CCC2)c1=O` [Compound I-38, 5-Amino-8-cyclobutyl-2-[4-(4-hydroxy-piperidine-1-carbonyl)-cyclohexylamino]-7-oxo-7,8-dihydro-pyrido[2,3-d]pyrimidine-6-carbonitrile] registered a melting point of more than 300 °C. `COC(=O)N[C@H]1CC[C@H](Nc2ncc3c(N)cc(=O)n(C4CC4)c3n2)CC1` [Compound I-39, [4-(5-Amino-8-cyclopropyl-7-oxo-7,8-dihydro-pyrido[2,3-d]pyrimidin-2-ylamino)-cyclohexyl]-carbamic acid methyl ester]: the melting point fell in the range of 257 to 259 °C. The compound `Cc1c(N)c2cnc(NC3CCN(S(C)(=O)=O)CC3)nc2n(C2CCC2)c1=O` [Compound I-40, 5-Amino-8-cyclobutyl-2-(1-methanesulfonyl-piperidin-4-ylamino)-6-methyl-8H-pyrido[2,3-d]pyrimidin-7-one] gave a melting point of 265.3 to 267 °C. In turn, `CC(=O)N[C@H]1CC[C@H](Nc2ncc3c(N)c(C)c(=O)n(C4CCCC4)c3n2)CC1` [Compound I-41, N-[4-(5-Amino-8-cyclopentyl-6-methyl-7-oxo-7,8-dihydro-pyrido[2,3-d]pyrimidin-2-ylamino)-cyclohexyl]-acetamide] returned a melting point of 296.2 to 298.2 °C. Then `CC(=O)N[C@H]1CC[C@H](Nc2ncc3c(N)cc(=O)n(CCCO)c3n2)CC1` [Compound I-42, N-{4-[5-Amino-8-(3-hydroxy-propyl)-7-oxo-7,8-dihydro-pyrido[2,3-d]pyrimidin-2-ylamino]-cyclohexyl}-acetamide], with more than 300 °C; and `COC(=O)N[C@H]1CC[C@H](Nc2ncc3c(N)cc(=O)n(CCCO)c3n2)CC1` [Compound I-43, {4-[5-Amino-8-(3-hydroxy-propyl)-7-oxo-7,8-dihydro-pyrido[2,3-d]pyrimidin-2-ylamino]-cyclohexyl}-carbamic acid methyl ester], with 190 to 191 °C.
